ChEMBL document CHEMBL3046322, “Insect growth regulatory effects by diterpenes from Calceolaria talcana Grau & Ehrhart (Calceolariaceae: Scrophulariaceae) against Spodoptera frugiperda and Drosophila melanogaster” (2013)
Calls of active or inactive are those of the source. The calls are words filed in the database; no cut-off is given here.

Columns and labels:
Spodoptera frugiperda [1] = test: Growth inhibitory activity against first-instar larval stage of Spodoptera frugiperda (fall armyworm) fed with compound incorporated diet assessed as length gained at 5 ug/ml after 7 days (reference value: 100%); type: functional; set-up: scale not given: the % may be the effect or the level left
Spodoptera frugiperda [2] = test: Growth inhibitory activity against first-instar larval stage of Spodoptera frugiperda (fall armyworm) fed with compound incorporated diet assessed as weight gained at 50 ug/ml after 7 days (reference value: 100%); type: functional; set-up: scale not given: the % may be the effect or the level left
Spodoptera frugiperda [3] = test: Growth inhibitory activity against first-instar larval stage of Spodoptera frugiperda (fall armyworm) fed with compound incorporated diet assessed as weight gained at 35 ug/ml after 7 days (reference value: 100%); type: functional; set-up: scale not given: the % may be the effect or the level left
Spodoptera frugiperda [4] = test: Growth inhibitory activity against first-instar larval stage of Spodoptera frugiperda (fall armyworm) fed with compound incorporated diet assessed as weight gained at 10 ug/ml after 7 days (reference value: 100%); type: functional; set-up: scale not given: the % may be the effect or the level left
Spodoptera frugiperda [5] = test: Growth inhibitory activity against first-instar larval stage of Spodoptera frugiperda (fall armyworm) fed with compound incorporated diet assessed as weight gained at 5 ug/ml after 7 days (reference value: 100%); type: functional; set-up: scale not given: the % may be the effect or the level left
Spodoptera frugiperda [6] = test: Growth inhibitory activity against Spodoptera frugiperda (fall armyworm) larvae fed with compound containing diet assessed as relative growth index at 10 ug/ml (reference value: 1.0 no_unit); type: functional
Spodoptera frugiperda [7] = test: Growth inhibitory activity against Spodoptera frugiperda (fall armyworm) larvae fed with compound containing diet assessed as relative growth index at 20 ug/ml (reference value: 1.0 no_unit); type: functional
Spodoptera frugiperda [8] = test: Growth inhibitory activity against Spodoptera frugiperda (fall armyworm) larvae fed with compound containing diet assessed as growth index at 20 ug/ml (reference value: 0.95 +/-0.02 no_unit); type: functional
Spodoptera frugiperda [9] = test: Growth inhibitory activity against Spodoptera frugiperda (fall armyworm) larvae fed with compound containing diet assessed as growth index at 5 ug/ml (reference value: 0.95 +/-0.02 no_unit); type: functional
Spodoptera frugiperda [10] = test: Growth inhibitory activity against Spodoptera frugiperda (fall armyworm) larvae fed with compound containing diet assessed as reduction in adult emergence at 20 ug/ml; type: functional
Spodoptera frugiperda [11] = test: Growth inhibitory activity against Spodoptera frugiperda (fall armyworm) larvae fed with compound containing diet assessed as reduction in survival pupation at >10 ug/ml; type: functional
Spodoptera frugiperda [12] = test: Growth inhibitory activity against po dosed fourth-instar larvae of Spodoptera frugiperda (fall armyworm) assessed as proportion of prothetely appearance of precocious pupal structure in larvae after 48 to 72 hr; type: functional; set-up: scale not given: the % may be the effect or the level left
Spodoptera frugiperda [13] = test: Growth inhibitory activity against po dosed Spodoptera frugiperda (fall armyworm) larvae assessed as promotion of apolysis to fifth instar with ecdysis inhibition at 5 to 20 ug/ml; type: functional, organism-based
Drosophila melanogaster = test: Insecticidal activity against Drosophila melanogaster larvae fed with compound incorporated diet assessed as mortality at 20 ug/ml after 72 hr by not choice test (reference value: 0%); type: functional
Spodoptera frugiperda [14] = test: Acute toxicity against last larval stage of Spodoptera frugiperda (fall armyworm) assessed as survival at 10 ug/ml applied topically onto abdomen measured after 24 hr (reference value: 98.8 +/-3.5%); type: functional
Spodoptera frugiperda [15] = test: Acute toxicity against last larval stage of Spodoptera frugiperda (fall armyworm) assessed as survival at 5 ug/ml applied topically onto abdomen measured after 24 hr (reference value: 98.8 +/-3.5%); type: functional
Spodoptera frugiperda [16] = test: Insecticidal activity against first-instar larval stage of Spodoptera frugiperda (fall armyworm) fed with compound incorporated diet assessed as mortality at 40 ug/ml after 7 days; type: functional, organism-based
Spodoptera frugiperda [17] = test: Insecticidal activity against first-instar larval stage of Spodoptera frugiperda (fall armyworm) fed with compound incorporated diet assessed as mortality at 50 ug/ml after 21 days (reference value: 5.6%); type: functional; conditions: 504 h
Spodoptera frugiperda [18] = test: Growth inhibitory activity against first-instar larval stage of Spodoptera frugiperda (fall armyworm) fed with compound incorporated diet assessed as length gained at 10 ug/ml after 21 days (reference value: 100%); type: functional
Spodoptera frugiperda [19] = test: Growth inhibitory activity against first-instar larval stage of Spodoptera frugiperda (fall armyworm) fed with compound incorporated diet assessed as length gained at 5 ug/ml after 21 days (reference value: 100%); type: functional
Spodoptera frugiperda [20] = test: Growth inhibitory activity against first-instar larval stage of Spodoptera frugiperda (fall armyworm) fed with compound incorporated diet assessed as weight gained at 50 ug/ml after 21 days (reference value: 100%); type: functional
Spodoptera frugiperda [21] = test: Growth inhibitory activity against first-instar larval stage of Spodoptera frugiperda (fall armyworm) fed with compound incorporated diet assessed as weight gained at 35 ug/ml after 21 days (reference value: 100%); type: functional
Spodoptera frugiperda [22] = test: Growth inhibitory activity against first-instar larval stage of Spodoptera frugiperda (fall armyworm) fed with compound incorporated diet assessed as weight gained at 20 ug/ml after 21 days (reference value: 100%); type: functional
Spodoptera frugiperda [23] = test: Growth inhibitory activity against first-instar larval stage of Spodoptera frugiperda (fall armyworm) fed with compound incorporated diet assessed as weight gained at 10 ug/ml after 21 days (reference value: 100%); type: functional
Spodoptera frugiperda [24] = test: Growth inhibitory activity against first-instar larval stage of Spodoptera frugiperda (fall armyworm) fed with compound incorporated diet assessed as weight gained at 5 ug/ml after 21 days (reference value: 100%); type: functional
Spodoptera frugiperda [25] = test: Insecticidal activity against first-instar larval stage of Spodoptera frugiperda (fall armyworm) fed with compound incorporated diet assessed as mortality at 50 ug/ml after 7 days (reference value: 5.6%); type: functional; conditions: 168 h
Spodoptera frugiperda [26] = test: Insecticidal activity against first-instar larval stage of Spodoptera frugiperda (fall armyworm) fed with compound incorporated diet assessed as mortality at 35 ug/ml after 7 days (reference value: 5.6%); type: functional; conditions: 168 h
Spodoptera frugiperda [27] = test: Insecticidal activity against first-instar larval stage of Spodoptera frugiperda (fall armyworm) fed with compound incorporated diet assessed as mortality at 20 ug/ml after 21 days (reference value: 5.6%); type: functional; conditions: 504 h
Spodoptera frugiperda [28] = test: Insecticidal activity against first-instar larval stage of Spodoptera frugiperda (fall armyworm) fed with compound incorporated diet assessed as mortality at 10 ug/ml after 21 days (reference value: 5.6%); type: functional; conditions: 504 h
Spodoptera frugiperda [29] = test: Insecticidal activity against first-instar larval stage of Spodoptera frugiperda (fall armyworm) fed with compound incorporated diet assessed as mortality at 5 ug/ml after 21 days (reference value: 5.6%); type: functional; conditions: 504 h
Spodoptera frugiperda [30] = test: Growth inhibitory activity against first-instar larval stage of Spodoptera frugiperda (fall armyworm) fed with compound incorporated diet assessed as length gained at 50 ug/ml after 21 days (reference value: 100%); type: functional
Spodoptera frugiperda [31] = test: Growth inhibitory activity against first-instar larval stage of Spodoptera frugiperda (fall armyworm) fed with compound incorporated diet assessed as length gained at 35 ug/ml after 21 days (reference value: 100%); type: functional
Spodoptera frugiperda [32] = test: Growth inhibitory activity against first-instar larval stage of Spodoptera frugiperda (fall armyworm) fed with compound incorporated diet assessed as length gained at 20 ug/ml after 7 days (reference value: 100%); type: functional
Spodoptera frugiperda [33] = test: Growth inhibitory activity against Spodoptera frugiperda (fall armyworm) larvae fed with compound containing diet assessed as growth index at 35 ug/ml (reference value: 0.95 +/-0.02 no_unit); type: functional
Spodoptera frugiperda [34] = test: Growth inhibitory activity against Spodoptera frugiperda (fall armyworm) larvae fed with compound containing diet assessed as relative growth index at 35 ug/ml (reference value: 1.0 no_unit); type: functional
Spodoptera frugiperda [35] = test: Acute toxicity against last larval stage of Spodoptera frugiperda (fall armyworm) assessed as mortality applied topically onto abdomen measured after 7 days; type: functional; conditions: topical, 168 h

Compound	Activity (Spodoptera frugiperda [1]) [%]	Activity (Spodoptera frugiperda [2]) [%]	Activity (Spodoptera frugiperda [3]) [%]	Activity (Spodoptera frugiperda [4]) [%]	Activity (Spodoptera frugiperda [5]) [%]	Growth_index (Spodoptera frugiperda [6])	Growth_index (Spodoptera frugiperda [7])	Growth_index (Spodoptera frugiperda [8])	Growth_index (Spodoptera frugiperda [9])	inhibition at 20 µg/mL (Spodoptera frugiperda [10]) [%]	Activity (Spodoptera frugiperda [12]) [%]	Activity (Spodoptera frugiperda [13])	mortality at 20 µg/mL (Drosophila melanogaster) [%]	Activity (Spodoptera frugiperda [14]) [%]	Activity (Spodoptera frugiperda [15]) [%]	mortality at 50 µg/mL (Spodoptera frugiperda [17]) [%]	Length gained relative to control (Spodoptera frugiperda [18]) [%]	Length gained (% of control) (Spodoptera frugiperda [19]) [%]	Weight gain relative to control (Spodoptera frugiperda [20]) [%]	Weight gain relative to control (Spodoptera frugiperda [21]) [%]	further results
C[C@H]1[C@H](C)CC[C@]2(C(=O)O)CC[C@]3(C)C(=CC[C@@H]4[C@@]5(C)CC[C@H](O)C(C)(C)[C@@H]5CC[C@]43C)[C@H]12 [URSOLIC ACID]	68.6	32.5	49.2	53.3	81.5	0.73	0.29	0.28	0.93	0	30	Active	15.1	52.9	73	100	48.4	57.2	0	0	inhibition (INH) (Spodoptera frugiperda [11]): 0%; mortality (Spodoptera frugiperda [16]): Active; Weight gain relative to control (Spodoptera frugiperda [22]): 30.1%; Weight gain (% of control) (Spodoptera frugiperda [23]): 47.4%; Larval weight gain relative to control (Spodoptera frugiperda [24]): 51.9%; mortality at 50 µg/mL (Spodoptera frugiperda [25]): 79.1%; mortality at 35 µg/mL (Spodoptera frugiperda [26]): 46.8%; mortality at 20 µg/mL (Spodoptera frugiperda [27]): 91.7%; mortality at 10 µg/mL (Spodoptera frugiperda [28]): 81.3%; mortality at 5 µg/mL (Spodoptera frugiperda [29]): 79.1%; Length gained (% of control) (Spodoptera frugiperda [30]): 0%; Length gained relative to control (Spodoptera frugiperda [31]): 0%; Length gained relative to control (Spodoptera frugiperda [32]): 8.9%
CC(C)c1ccc2c(c1)CC[C@H]1[C@](C)(CO)CCC[C@]21C [POMIFERIN A]	88.3	41.3	42.3	81.3	89.5	0.98	0.96	0.91	0.97	0	30	Active	67	69.1	75	44	59.4	85.6	33.6	38.2	Growth_index (Spodoptera frugiperda [33]): 0.71; Growth_index (Spodoptera frugiperda [34]): 0.75; LD50 (Spodoptera frugiperda [35]): 17.5 µg/mL; Weight gain relative to control (Spodoptera frugiperda [22]): 50.6%; Weight gain (% of control) (Spodoptera frugiperda [23]): 65.8%; Larval weight gain relative to control (Spodoptera frugiperda [24]): 93.5%; mortality at 50 µg/mL (Spodoptera frugiperda [25]): 83.3%; mortality at 35 µg/mL (Spodoptera frugiperda [26]): 63%; mortality at 20 µg/mL (Spodoptera frugiperda [27]): 15%; mortality at 10 µg/mL (Spodoptera frugiperda [28]): 5.6%; mortality at 5 µg/mL (Spodoptera frugiperda [29]): 4.16%; Length gained (% of control) (Spodoptera frugiperda [30]): 37.4%; Length gained relative to control (Spodoptera frugiperda [31]): 37.4%; Length gained relative to control (Spodoptera frugiperda [32]): 64.2%
C=CC(C)(C)C1=C(O)C(=O)c2ccccc2C1=O	50.8	0	5	29.3	47.4	0.45	0.12	0.12	0.71	0	30	Active	65	6.8	35.5	100	39.8	64.3	0	7.8	Growth_index (Spodoptera frugiperda [33]): 0.09; Growth_index (Spodoptera frugiperda [34]): 0.1; inhibition (INH) (Spodoptera frugiperda [11]): 0%; LD50 (Spodoptera frugiperda [35]): 3.64 µg/mL; mortality (Spodoptera frugiperda [16]): Active; Weight gain relative to control (Spodoptera frugiperda [22]): 9%; Weight gain (% of control) (Spodoptera frugiperda [23]): 27.7%; Larval weight gain relative to control (Spodoptera frugiperda [24]): 35.6%; mortality at 50 µg/mL (Spodoptera frugiperda [25]): 100%; mortality at 35 µg/mL (Spodoptera frugiperda [26]): 95.8%; mortality at 20 µg/mL (Spodoptera frugiperda [27]): 98%; mortality at 10 µg/mL (Spodoptera frugiperda [28]): 41.7%; mortality at 5 µg/mL (Spodoptera frugiperda [29]): 66.7%; Length gained (% of control) (Spodoptera frugiperda [30]): 0%; Length gained relative to control (Spodoptera frugiperda [31]): 4.1%; Length gained relative to control (Spodoptera frugiperda [32]): 20.8%
